Experimental data reported in patent US7018989B2, “Chemical compounds” (University College Cardiff Consultants, LTD, priority 1995, dated 2006).
Like-named read-outs stand apart in the source and are kept apart here.

Assays:
CEM cells = assay: Toxicity to CEM cells; type: cell-based, human
Protocol: (§1) Cells were infected with HIV-1 as previously described [Balzarini et al. AIDS (1991), 5, 21–28]. Briefly, 5×10^5 cells per milliliter were infected with HIV-1 or HIV-2 at 100 CCID50 (50% cell culture infective dose) per milliliter of cell suspension. Then 100 μL of the infected cell suspension was transferred to microtiter plate wells and mixed with 100 μL of the appropriate dilutions of the test compounds. After 4 days giant cell formation was recorded microscopically in the HIV-infected cell cultures [CEM], and after 5 days the number of viable cells was determined by trypan blue staining of the HIV-infected cell cultures [MT4].
(§2) The data columns are, in order: • HIV1 MT4: EC50 in μM for inhibition of HIV-1 in MT4 cells. • HIV2 MT4: EC50 in μM for inhibition of HIV-2 in MT4 cells. • CC50 MT4: CC50 in μM for toxicity to MT-4 cells. • HIV1 CEM: EC50 in μM for inhibition of HIV-1 in CEM cells. • HIV2 CEM: EC50 in μM for inhibition of HIV-2 in CEM cells. • HIV2 CEM-TK-: EC50 in μM for inhibition of HIV-2 in CEM/TK^− cells. • CC50 CEM: CC50 in μM for toxicity to CEM cells. • EC50 MSV: EC50 in μM for inhibition of MSV • MCC MSV: Minimum cytotoxic concentration in MSV assay

HIV-1 = assay: microbe, parasite or virus in culture; details: read-out: HIV1 CEM: EC50 for inhibition of HIV-1 in CEM cells
Protocol: as §1, §2

[1] = Minimum cytotoxic concentration in MSV assay; type: cell-based
Text: as §2, with “CEM/TK^-” for “CEM/TK^−”, “[…]:” for “MSV • MCC MSV:”

MSV = assay: Inhibition of MSV (in vitro); type: cell-based, Moloney Sarcoma Virus
Text: as §2

HIV-2 [2] = assay: Inhibition of HIV-2 in CEM cells (giant cell formation); type: cell-based; details: read-out: HIV2 CEM: EC50 for inhibition of HIV-2 in CEM cells
Protocol: as §1, §2

HIV-2 [3] = assay: Inhibition of HIV-2 in CEM/TK- cells; type: cell-based
Protocol: as §1, §2

[4] = Table 6, mean of two or more repeat experiments
[5] = Table 6, mean of two or more repeat experiments, read-out: HIV2 CEM-TK-: EC50 for inhibition of HIV-2 in CEM/TK^− cells
[6] = CEM/TK- cells, HIV-2, read-out: HIV2 CEM-TK-: EC50 for inhibition of HIV-2 in CEM/TK- cells

Structure (SMILES) | CC50 (CEM cells; [4]) | EC50 (HIV-1; [4]) | EC50 (HIV-2 [2]; [4]) | EC50 (HIV-2 [3]; [5]) | further results
COC(=O)C(Cc1ccccc1)NP(=O)(OCC1OC(n2cc(C)c(=O)[nH]c2=O)CC1N=[N+]=[N-])Oc1ccccc1 (stereo not shown) [Cpd 941] |  |  |  |  | CC50 (CEM cells; CEM cells): 115 µM; EC50 (HIV-1; CEM cells, HIV-1): > 50 µM; MCC MSV: Minimum cytotoxic concentration in MSV assay ([1]; MSV assay): >100; EC50 (MSV; MSV): > 100 µM; EC50 (HIV-2 [2]; CEM cells, HIV-2): > 50 µM
CCCCCCCCO[PH](=O)OCC1C=CC(n2cc(C)c(=O)[nH]c2=O)O1 (stereo not shown) [Compound 791] | 90 µM | 0.4 µM | 0.6 µM | 23 µM | 
CCCCCCOP(=O)(O)OCC1OC(n2cc(C)c(=O)[nH]c2=O)CC1N=[N+]=[N-] (stereo not shown) [Cpd 857] |  |  |  |  | CC50 (CEM cells; CEM cells): > 250 µM; EC50 (HIV-1; CEM cells, HIV-1): 5 µM; EC50 (HIV-2 [2]; CEM cells, HIV-2): 10 µM; EC50 (HIV-2 [3]; [6]): > 250 µM
Cc1cn(C2CC(N=[N+]=[N-])C(COP(=O)(OCCC#N)OCC(F)(F)F)O2)c(=O)[nH]c1=O (stereo not shown) [Cpd 847] |  |  |  |  | CC50 (CEM cells; CEM cells): > 250 µM; EC50 (HIV-1; CEM cells, HIV-1): 12 µM; EC50 (HIV-2 [2]; CEM cells, HIV-2): 9 µM; EC50 (HIV-2 [3]; [6]): > 250 µM
CCCCO[PH](=O)OCC1C=CC(n2cc(C)c(=O)[nH]c2=O)O1 (stereo not shown) [Compound 790] | 177 µM | 0.65 µM | 0.9 µM | 30 µM | 
CCOC(=O)C(C)NP(=O)(OCC1C=CC(n2cc(C)c(=O)[nH]c2=O)O1)Oc1ccccc1 (stereo not shown) [Compound 951] | 55 µM | 0.1 µM | 0.07 µM |  | MCC MSV: Minimum cytotoxic concentration in MSV assay ([1]; Table 6): >100; EC50 (MSV; Table 6): 25 µM
COCCOCCO[PH](=O)OCC1C=CC(n2cc(C)c(=O)[nH]c2=O)O1 (stereo not shown) [Compound 787] | 144 µM | 0.65 µM | 0.95 µM | 45 µM | 
COC(=O)C(C)NP(=O)(OC)OCC1OC(n2cc(C)c(=O)[nH]c2=O)CC1N=[N+]=[N-] (stereo not shown) [Cpd 739] |  |  |  |  | CC50 (CEM cells; CEM cells): > 250 µM; EC50 (HIV-1; CEM cells, HIV-1): 10 µM; EC50 (HIV-2 [2]; CEM cells, HIV-2): 18 µM; EC50 (HIV-2 [3]; [6]): > 250 µM
CCO[PH](=O)OCC1C=CC(n2cc(C)c(=O)[nH]c2=O)O1 (stereo not shown) [Compound 788] | 115 µM | 0.65 µM | 0.6 µM | 30 µM | 
Cc1cn([C@H]2C=C[C@@H](COP(=O)(O)NCC(=O)O)O2)c(=O)[nH]c1=O [Compound 1163, 2′,3′-dideoxy-2′,3′-didehydrothymidine 5′-(glycinyl phosphate)] | > 250 µM | 2 µM | 5 µM | 130 µM | 
CC(NP(=O)(OCC1C=CC(n2ccc(=O)[nH]c2=O)O1)Oc1ccccc1)C(=O)OCc1ccccc1 (stereo not shown) [Compound 849] | 115 µM | 23 µM | 15 µM | 10 µM | 
Cc1cn(C2C=CC(COP(=O)(OCCC#N)Oc3ccccc3)O2)c(=O)[nH]c1=O (stereo not shown) [Compound 861] | ≥ 250 µM | 1.2 µM | 0.95 µM | 17.5 µM | 
CCCCCCOP(=O)(OCCCCCC)OCC1C=CC(n2cc(C)c(=O)[nH]c2=O)O1 (stereo not shown) [Compound 321] | 36 µM | > 42 µM | > 42 µM | > 42 µM | 
COC(=O)C(C)NP(=O)(OCC1C=CC(n2ccc(=O)[nH]c2=O)O1)Oc1ccccc1 (stereo not shown) [Compound 558] |  | > 44 µM | > 44 µM | > 44 µM | 
Cc1cn([C@H]2C=C[C@@H](COP(=O)(O)O)O2)c(=O)[nH]c1=O [Compound 775] | 174 µM | 0.8 µM | 0.95 µM | 33 µM | 
CCCCNP(=O)(OCC1C=CC(n2cc(C)c(=O)[nH]c2=O)O1)Oc1ccccc1 (stereo not shown) [Compound 840] | > 250 µM | 140 µM | 100 µM | 125 µM | 
Cc1cn(C2CC(N=[N+]=[N-])C(COP(=O)(O)OCC(F)(F)F)O2)c(=O)[nH]c1=O (stereo not shown) [Cpd 855] |  |  |  |  | CC50 (CEM cells; CEM cells): > 250 µM; EC50 (HIV-1; CEM cells, HIV-1): 17.5 µM; EC50 (HIV-2 [2]; CEM cells, HIV-2): 17.5 µM; EC50 (HIV-2 [3]; [6]): > 250 µM
CO[PH](=O)OCC1C=CC(n2cc(C)c(=O)[nH]c2=O)O1 (stereo not shown) [Compound 817] | 146 µM | 0.7 µM | 0.55 µM | 20 µM | 
